# Reference: the supplement of paper PMC10307832
# Legend:
# Experiment in all cases: relative viability (nuclei count vs DMSO), 5 days (fraction); higher = more cells survive
# A-427 = tested on: A-427
# Summary of the method: (§1)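 Lung cancer cell lines in 1536-well plates got either a single drug or a fixed anchor-drug dose together with five library-drug doses (not always all listed) in √10 steps, by pin tool, on the day after seeding. Nuclei were counted after 5 days, and relative viability is the treated-to-vehicle ratio of nuclei counts. Values are medians of duplicate plates.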
# ABC-1 = tested on: ABC-1
# Summary of the method: as §1
# CAL-12T = tested on: CAL-12T
# Summary of the method: as §1
# H3255 = tested on: H3255
# Summary of the method: as §1
# LCLC-97TM1 = tested on: LCLC-97TM1
# Summary of the method: as §1
# LK-2 = tested on: LK-2
# Summary of the method: as §1
# NCI-H1355 = tested on: NCI-H1355
# Summary of the method: as §1
# NCI-H1395 = tested on: NCI-H1395
# Summary of the method: as §1
# NCI-H1651 = tested on: NCI-H1651
# Summary of the method: as §1
# NCI-H1666 = tested on: NCI-H1666
# Summary of the method: as §1
# NCI-H1792 = tested on: NCI-H1792
# Summary of the method: as §1
# NCI-H1915 = tested on: NCI-H1915
# Summary of the method: as §1
# NCI-H2085 = tested on: NCI-H2085
# Summary of the method: as §1
# NCI-H2087 = tested on: NCI-H2087
# Summary of the method: as §1
# NCI-H2228 = tested on: NCI-H2228
# Summary of the method: as §1
# NCI-H322M = tested on: NCI-H322M
# Summary of the method: as §1
# NCI-H358 = tested on: NCI-H358
# Summary of the method: as §1
# NCI-H661 = tested on: NCI-H661
# Summary of the method: as §1
# NCI-H838 = tested on: NCI-H838
# Summary of the method: as §1
# PC-14 = tested on: PC-14
# Summary of the method: as §1
# PC-3 [JPC-3] = tested on: PC-3 [JPC-3]
# Summary of the method: as §1
# SK-MES-1 = tested on: SK-MES-1
# Summary of the method: as §1
# UMC-11 = tested on: UMC-11
# Summary of the method: as §1
structure (smiles),measurement,setting,value
Cc1cnc(-c2cnc(NCCNc3ccc(C#N)cn3)nc2-c2ccc(Cl)cc2Cl)[nH]1 + Cc1nc(Nc2ncc(C(=O)Nc3c(C)cccc3Cl)s2)cc(N2CCN(CCO)CC2)n1 [Dasatinib] (partner 0.075 µM),relative viability,A-427; first compound 0.08 µM,0.747
same,relative viability,A-427; first compound 0.253 µM,0.589
same,relative viability,A-427; first compound 0.8 µM,0.738
same,relative viability,A-427; first compound 2.53 µM,0.682
same,relative viability,ABC-1; first compound 0.08 µM,0.553
same,relative viability,ABC-1; first compound 0.8 µM,0.476
same,relative viability,ABC-1; first compound 2.53 µM,0.417
same,relative viability,CAL-12T; first compound 0.08 µM,0.523
same,relative viability,CAL-12T; first compound 0.253 µM,0.358
same,relative viability,CAL-12T; first compound 0.8 µM,0.23
same,relative viability,CAL-12T; first compound 2.53 µM,0.198
same,relative viability,H3255; first compound 0.08 µM,0.466
same,relative viability,H3255; first compound 0.253 µM,0.445
same,relative viability,H3255; first compound 2.53 µM,0.388
same,relative viability,LCLC-97TM1; first compound 0.08 µM,0.796
same,relative viability,LCLC-97TM1; first compound 0.8 µM,0.887
same,relative viability,LCLC-97TM1; first compound 2.53 µM,0.741
same,relative viability,LK-2; first compound 0.08 µM,0.387
same,relative viability,LK-2; first compound 0.253 µM,0.302
same,relative viability,LK-2; first compound 0.8 µM,0.39
same,relative viability,NCI-H1355; first compound 0.08 µM,0.749
same,relative viability,NCI-H1355; first compound 0.253 µM,0.664
same,relative viability,NCI-H1355; first compound 0.8 µM,0.746
same,relative viability,NCI-H1355; first compound 2.53 µM,0.689
same,relative viability,NCI-H1395; first compound 0.08 µM,0.405
same,relative viability,NCI-H1395; first compound 0.253 µM,0.401
same,relative viability,NCI-H1395; first compound 0.8 µM,0.443
same,relative viability,NCI-H1395; first compound 2.53 µM,0.432
same,relative viability,NCI-H1651; first compound 0.08 µM,0.426
same,relative viability,NCI-H1651; first compound 0.253 µM,0.436
same,relative viability,NCI-H1651; first compound 0.8 µM,0.376
same,relative viability,NCI-H1651; first compound 2.53 µM,0.355
same,relative viability,NCI-H1666; first compound 0.08 µM,0.897
same,relative viability,NCI-H1666; first compound 0.253 µM,0.671
same,relative viability,NCI-H1666; first compound 0.8 µM,0.845
same,relative viability,NCI-H1666; first compound 2.53 µM,0.7
same,relative viability,NCI-H1792; first compound 0.08 µM,0.998
same,relative viability,NCI-H1792; first compound 0.253 µM,0.777
same,relative viability,NCI-H1792; first compound 0.8 µM,0.772
same,relative viability,NCI-H1792; first compound 2.53 µM,0.762
same,relative viability,NCI-H1915; first compound 0.08 µM,0.339
same,relative viability,NCI-H1915; first compound 0.253 µM,0.294
same,relative viability,NCI-H1915; first compound 0.8 µM,0.342
same,relative viability,NCI-H1915; first compound 2.53 µM,0.311
same,relative viability,NCI-H2085; first compound 0.08 µM,0.247
same,relative viability,NCI-H2085; first compound 0.253 µM,0.239
same,relative viability,NCI-H2085; first compound 0.8 µM,0.21
same,relative viability,NCI-H2085; first compound 2.53 µM,0.239
same,relative viability,NCI-H2087; first compound 0.08 µM,0.837
same,relative viability,NCI-H2087; first compound 0.253 µM,0.698
same,relative viability,NCI-H2087; first compound 0.8 µM,0.919
same,relative viability,NCI-H2087; first compound 2.53 µM,0.614
same,relative viability,NCI-H2228; first compound 0.08 µM,0.548
same,relative viability,NCI-H2228; first compound 0.253 µM,0.554
same,relative viability,NCI-H2228; first compound 0.8 µM,0.494
same,relative viability,NCI-H2228; first compound 2.53 µM,0.424
same,relative viability,NCI-H322M; first compound 0.08 µM,0.246
same,relative viability,NCI-H322M; first compound 0.253 µM,0.281
same,relative viability,NCI-H322M; first compound 0.8 µM,0.248
same,relative viability,NCI-H322M; first compound 2.53 µM,0.274
same,relative viability,NCI-H358; first compound 0.08 µM,0.157
same,relative viability,NCI-H358; first compound 0.253 µM,0.17
same,relative viability,NCI-H358; first compound 0.8 µM,0.207
same,relative viability,NCI-H358; first compound 2.53 µM,0.189
same,relative viability,NCI-H661; first compound 0.08 µM,1.04
same,relative viability,NCI-H661; first compound 0.253 µM,0.778
same,relative viability,NCI-H661; first compound 0.8 µM,0.845
same,relative viability,NCI-H661; first compound 2.53 µM,0.794
same,relative viability,NCI-H838; first compound 0.08 µM,0.276
same,relative viability,NCI-H838; first compound 0.253 µM,0.307
same,relative viability,NCI-H838; first compound 0.8 µM,0.306
same,relative viability,NCI-H838; first compound 2.53 µM,0.363
same,relative viability,PC-14; first compound 0.08 µM,0.325
same,relative viability,PC-14; first compound 0.253 µM,0.226
same,relative viability,PC-14; first compound 2.53 µM,0.172
same,relative viability,PC-3 [JPC-3]; first compound 0.08 µM,0.926
same,relative viability,PC-3 [JPC-3]; first compound 0.253 µM,0.88
same,relative viability,PC-3 [JPC-3]; first compound 0.8 µM,0.929
same,relative viability,PC-3 [JPC-3]; first compound 2.53 µM,1
same,relative viability,SK-MES-1; first compound 0.08 µM,0.332
same,relative viability,SK-MES-1; first compound 0.253 µM,0.425
same,relative viability,SK-MES-1; first compound 0.8 µM,0.401
same,relative viability,SK-MES-1; first compound 2.53 µM,0.247
same,relative viability,UMC-11; first compound 0.08 µM,0.515
same,relative viability,UMC-11; first compound 0.253 µM,0.542
same,relative viability,UMC-11; first compound 0.8 µM,0.498
same,relative viability,UMC-11; first compound 2.53 µM,0.527
